Source: EPA's CvTdb concentration-time database (doi:10.1093/toxsci/kfy020)

What was measured:
rat [1] = test: concentration in plasma after dosing
rat [2] = test: concentration in plasma after dosing; conditions: dosed: Pentadecafluorooctanoic acid, 1.0000000000 mg/kg, oral, male, Sprague-Dawley
rat [3] = test: concentration in plasma after dosing; conditions: dosed: Pentadecafluorooctanoic acid, 0.2000000000 mg/kg, iv, male, Sprague-Dawley
rat [4] = test: concentration in plasma after dosing; conditions: dosed: Pentadecafluorooctanoic acid, 1.0000000000 mg/kg, oral, male, Sprague-Dawley; remark: listed apart in the source
rat [5] = test: concentration in plasma after dosing; conditions: dosed: Pentadecafluorooctanoic acid, 0.2000000000 mg/kg, iv, male, Sprague-Dawley; remark: listed apart in the source
rat [6] = test: concentration in plasma after dosing; conditions: dosed: Pentadecafluorooctanoic acid, 0.2000000000 mg/kg, iv, male, Sprague-Dawley; remark: listed apart in the source
rat [7] = test: concentration in plasma after dosing; conditions: dosed: Pentadecafluorooctanoic acid, 1.0000000000 mg/kg, oral, male, Sprague-Dawley; remark: listed apart in the source
rat [8] = test: concentration in brain after dosing; conditions: dosed: Imipramine, 10.0000000000 mg/kg, iv, male, Wistar

Cc1ncc2n1-c1ccc(Cl)cc1C(c1ccccc1F)=NC2 [Midazolam]
concentration in plasma [ng/mL], rat [1], dosed: Midazolam, male, Sprague-Dawley
Conditions	0.25 h	0.5 h	1 h	1.5 h	2 h	3 h	4 h	5 min	10 min
5.0000000000 mg/kg, iv	964	570	255	125	62.5	16.1	1	2210	1080
15.0000000000 mg/kg, oral	134	163	123	113	88.5	37.7	19.8	12.9	71.1

O=C(O)C(F)(F)C(F)(F)C(F)(F)C(F)(F)C(F)(F)C(F)(F)C(F)(F)F [Pentadecafluorooctanoic acid]
concentration in plasma [ng/mL]
Conditions	rat [2]	rat [3]	rat [4]	rat [5]	rat [6]	rat [7]
0.25 h	248	–	363	–	–	762
0.5 h	379	150	540	245	188	608
1 h	665	144	669	226	189	897
2 h	764	138	957	236	196	950
4 h	765	168	1040	196	189	924
5 min	–	208	–	310	257	–
8 h	955	148	1100	207	171	1210
10 min	–	176	–	280	207	–
12 h	1030	147	1100	194	135	1180
24 h	1010	141	1040	195	168	1130
48 h	857	115	1510	161	148	916
72 h	563	98	663	153	122	855

rat [1], dosed: Pentadecafluorooctanoic acid, male, Sprague-Dawley
Conditions	concentration in plasma [ng/mL]
0.25 h, 1.0000000000 mg/kg, oral	420
0.5 h, 0.2000000000 mg/kg, iv	156
0.5 h, 1.0000000000 mg/kg, oral	584
1 h, 0.2000000000 mg/kg, iv	145
1 h, 1.0000000000 mg/kg, oral	885
2 h, 0.2000000000 mg/kg, iv	150
2 h, 1.0000000000 mg/kg, oral	1170
4 h, 0.2000000000 mg/kg, iv	141
4 h, 1.0000000000 mg/kg, oral	1190
5 min, 0.2000000000 mg/kg, iv	221
8 h, 0.2000000000 mg/kg, iv	123
8 h, 1.0000000000 mg/kg, oral	1140
10 min, 0.2000000000 mg/kg, iv	188
12 h, 0.2000000000 mg/kg, iv	142
12 h, 1.0000000000 mg/kg, oral	1120
24 h, 0.2000000000 mg/kg, iv	139
24 h, 1.0000000000 mg/kg, oral	1270
48 h, 0.2000000000 mg/kg, iv	59
48 h, 1.0000000000 mg/kg, oral	911
72 h, 0.2000000000 mg/kg, iv	100
72 h, 1.0000000000 mg/kg, oral	655

CCOc1ccc(NC(C)=O)cc1 [Phenacetin]
rat [1], dosed: Phenacetin, 23.0000000000 mg/kg, iv, male, Sprague-Dawley
Conditions	concentration in plasma [ng/mL]
0.25 h	18900
0.5 h	16100
0.75 h	12200
1 h	9020
1.5 h	6630
2 h	4320
2.5 min	26300
5 min	24300
10 min	21800

O=C1NC(=O)C(c2ccccc2)(c2ccccc2)N1 [Phenytoin]
rat [1], dosed: Phenytoin, 25.0000000000 mg/kg, iv, duration: 1 min, male, Sprague-Dawley
Conditions	concentration in plasma [ng/mL]
0.25 h	21500
0.5 h	15800
0.75 h	12100
1 h	8790
1 min	461000
1.5 h	4630
2 h	2480
3 h	1500
4 h	831

rat [1], dosed: Phenytoin, male
Conditions	concentration in plasma [ng/mL]
0.25 h, 25.0000000000 mg/kg, oral, Sprague-Dawley	4120
0.25 h, 40.0000000000 mg/kg, iv, Wistar-derived	26900
0.5 h, 25.0000000000 mg/kg, oral, Sprague-Dawley	3370
0.5 h, 40.0000000000 mg/kg, iv, Wistar-derived	19300
0.75 h, 25.0000000000 mg/kg, oral, Sprague-Dawley	2620
1 h, 25.0000000000 mg/kg, oral, Sprague-Dawley	1820
1 h, 40.0000000000 mg/kg, iv, Wistar-derived	14200
1.5 h, 25.0000000000 mg/kg, oral, Sprague-Dawley	1200
1.5 h, 40.0000000000 mg/kg, iv, Wistar-derived	11700
2 h, 25.0000000000 mg/kg, oral, Sprague-Dawley	885
2 h, 40.0000000000 mg/kg, iv, Wistar-derived	8970
2.5 h, 40.0000000000 mg/kg, iv, Wistar-derived	7190
3 h, 25.0000000000 mg/kg, oral, Sprague-Dawley	1170
3 h, 40.0000000000 mg/kg, iv, Wistar-derived	4790
3.5 h, 40.0000000000 mg/kg, iv, Wistar-derived	3020
4 h, 25.0000000000 mg/kg, oral, Sprague-Dawley	1120
4 h, 40.0000000000 mg/kg, iv, Wistar-derived	2270
5 min, 40.0000000000 mg/kg, iv, Wistar-derived	54300
6 h, 25.0000000000 mg/kg, oral, Sprague-Dawley	771
8 h, 25.0000000000 mg/kg, oral, Sprague-Dawley	759
10 h, 25.0000000000 mg/kg, oral, Sprague-Dawley	865
10 min, 40.0000000000 mg/kg, iv, Wistar-derived	33800
12 h, 25.0000000000 mg/kg, oral, Sprague-Dawley	495
20 min, 40.0000000000 mg/kg, iv, Wistar-derived	23200
40 min, 40.0000000000 mg/kg, iv, Wistar-derived	16800

COCCc1ccc(OC[C@H](O)CNC(C)C)cc1 [R-Metoprolol]
rat [1], dosed: Metoprolol, 15.0000000000 mg/kg, oral, male, Wistar
Conditions	concentration in plasma [ng/mL]
1 h	24.4
1.5 h	10.1
2 h	12.2
2 min	199
2.5 h	4.49
3 h	2.07
4 h	1.05
4 min	380
8 min	84.6
10 min	108
20 min	79.3
40 min	53.9
50 min	35.4

COCCc1ccc(OC[C@@H](O)CNC(C)C)cc1 [S-Metoprolol]
rat [1], dosed: Metoprolol, 15.0000000000 mg/kg, oral, male, Wistar
Conditions	concentration in plasma [ng/mL]
0.1 h	93.2
0.5 h	53
1 h	13.9
1.5 h	8.15
2 h	6.61
2 min	219
2.5 h	2.14
3 h	1.45
4 min	425
8 min	79.3
10 min	68.6
20 min	54.7
40 min	38.4
50 min	24.4

CCCCNC(=O)NS(=O)(=O)c1ccc(C)cc1 [Tolbutamide]
rat [1], dosed: Tolbutamide, male
Conditions	concentration in plasma [ng/mL]
0.25 h, 20.0000000000 mg/kg, oral, Wistar	79100
0.5 h, 20.0000000000 mg/kg, oral, Wistar	84700
1 h, 10.0000000000 mg/kg, iv, Sprague-Dawley	43400
1 h, 20.0000000000 mg/kg, oral, Wistar	85900
1.5 h, 10.0000000000 mg/kg, iv, Sprague-Dawley	38400
2 h, 10.0000000000 mg/kg, iv, Sprague-Dawley	33400
2 h, 20.0000000000 mg/kg, oral, Wistar	76400
3 h, 10.0000000000 mg/kg, iv, Sprague-Dawley	29400
4 h, 10.0000000000 mg/kg, iv, Sprague-Dawley	25300
4 h, 20.0000000000 mg/kg, oral, Wistar	52900
5 h, 10.0000000000 mg/kg, iv, Sprague-Dawley	23100
6 h, 10.0000000000 mg/kg, iv, Sprague-Dawley	19500
6 h, 20.0000000000 mg/kg, oral, Wistar	35800
8 h, 20.0000000000 mg/kg, oral, Wistar	26600
10 min, 10.0000000000 mg/kg, iv, Sprague-Dawley	64200
12 h, 20.0000000000 mg/kg, oral, Wistar	17900
20 min, 10.0000000000 mg/kg, iv, Sprague-Dawley	57100
40 min, 10.0000000000 mg/kg, iv, Sprague-Dawley	49700

CCCC(CCC)C(=O)O [Valproic acid]
concentration in plasma [ng/mL], rat [1], dosed: Valproic acid, iv, Wistar
Conditions	10.0000000000 mg/kg	50.0000000000 mg/kg	100.0000000000 mg/kg
0.017 h	69900	290000	511000
0.05 h	49300	256000	427000
0.083 h	36300	228000	369000
0.167 h	32000	199000	329000
0.25 h	25700	168000	290000
0.5 h	14700	120000	250000
0.75 h	9080	72500	218000
1 h	5100	42900	171000
2 h	1200	5190	43700
3 h	494	2040	4030
4 h	298	905	1600

concentration in plasma [ng/mL], rat [1], dosed: Valproic acid, oral, female, Sprague-Dawley
Conditions	0.25 h	0.5 h	0.75 h	1 h	2 h	4 h
200.0000000000 mg/kg	269000	333000	246000	182000	95600	23000
600.0000000000 mg/kg	558000	841000	755000	691000	643000	294000

CNCCCN1c2ccccc2CCc2ccccc21 [desmethylimipramine]
rat [8]
Conditions	concentration in brain [µg/g]
0.5 h	8.62
1 h	1.08
2 h	0.86
4 h	0.72
5 min	1.44
6 h	0.69
10 min	1.8

rat [1], dosed: Imipramine, 10.0000000000 mg/kg, iv, male, Wistar
Conditions	concentration in plasma [ng/mL]
1 h	290
2 h	370
4 h	300
5 min	440
10 min	570
